According to PMC6835763, “Influence of Short Cationic Lipopeptides with Fatty Acids of Different Chain Lengths on Bacterial Biofilms Formed on Polystyrene and Hydrogel Surfaces” (Pharmaceutics, 2019):
In brackets after ≈: the same amount, converted by molar mass. Where a SMILES comes first, the peptide text is derived from it. Bridges are numbered along the chain shown (N, C = ends). Roman numbers before positions name the chains, in order. The star is where a group is joined. Palmitoyl = CCCCCCCCCCCCCCCC(=O)*; Myristoyl = CCCCCCCCCCCCCC(=O)*; Lauroyl = CCCCCCCCCCCC(=O)*

Tests used:
[1] = RP-HPLC retention to evaluate the hydrophobicity of lipopeptides; type: physicochemical; details: chromatographic, Luna C18(2) 3.0 × 100 mm, 5.0 µm, linear 20–80% acetonitrile in water over 10 min, 0.1% formic acid, 0.5 mL/min, UV 214 nm, used to evaluate hydrophobicity
Protocol: The crude peptide was lyophilized and subsequently purified by RP-HPLC. The purifications were carried out on a Phenomenex Gemini-NX C18 column (21.20 × 100 mm, 5.0 µm particle size, and 110 Å pore size). Acetonitrile and water, both containing 0.1% of TFA, were used as the mobile phase. UV detection at 214 nm was used. The crude peptides were eluted with a linear 20–80% acetonitrile gradient in deionized water over 60 min at a flow rate of 10.0 mL/min. The purity and identity of the peptides were confirmed with LC-MS analysis. A Waters Alliance e2695 RP-HPLC system (Waters, Milford, MA, USA) with Waters 2998 PDA (Waters, Milford, MA, USA) and Acquity QDA detectors (Empower®3 software, Database Version 7.21.00.00) was used. All analyses were carried out on a Phenomenex, Luna C18(2) column (3.0 × 100 mm, 5.0 µm particle size, 100 Å pore size). The samples were analyzed with a linear 20–80% acetonitrile gradient in deionized water over 10 min at a flow rate of 0.5 mL/min with UV detection at 214 nm. Both eluents contained 0.1% (v/v) of formic acid. The pure fractions (>95%, by HPLC analysis) were collected and lyophilized. The retention time and percentage of ACN (%) at which each peptide was eluted are included in Table 1 to evaluate the hydrophobicity of lipopeptides. The identity of all compounds was confirmed using mass spectrometry (Waters Alliance e2695 system with Acquity QDA detector, Waters, Milford, MA, USA) with electrospray ionization in positive ion mode (ESI-MS). In this mode, a proton is attached to basic moieties (amine groups, guanidine groups). The theoretical mass of the peptide was calculated and then expected ions (m/z—mass to charge ratio) were compared to measured m/z. The results are presented in Table 1, and mass spectra are presented in the Supplementary Materials.

[2] = system: Enterococcus faecalis ATCC 29212; type: cell-based; details: ATCC 29212, 18 h
Protocol: (§1) The reference strains of gram-positive and gram-negative bacteria (Table 2) were obtained from the Polish Collection of Microorganisms (Polish Academy of Science, Wroclaw, Poland). The microorganisms were cultured in Muller Hinton Broth II (MHB II, Biocorp, Warsaw, Poland), overnight, at 37 °C. The MICs of synthetic lipopeptides and conventional antimicrobials were determined using the broth microdilution method according to the Clinical and Laboratory Standard Institute (CLSI) guidelines on reference strains. […] The PS were incubated under aerobic conditions at 37 °C for 18 h. The MIC (μg/mL) was assumed as the lowest concentration of the compound that inhibited the growth of the microorganisms. All experiments were performed in triplicate and included the growth and sterility controls.

[3] = system: Escherichia coli ATCC 25922; type: cell-based; details: ATCC 25922, 18 h
Protocol: as §1

[4] = system: Pseudomonas aeruginosa ATCC 9027; type: cell-based; details: ATCC 9027, 18 h
Protocol: as §1

[5] = system: Staphylococcus aureus ATCC 25923; type: cell-based; details: ATCC 25923, 18 h
Protocol: as §1

[6] = system: Staphylococcus epidermidis ATCC 14990; type: cell-based; details: ATCC 14990, 18 h
Protocol: as §1

[7] = system: Enterococcus faecalis ATCC 29212; test: MBFIC assay (biofilm formation inhibition, resazurin); type: cell-based; details: ca. 5 × 10^8 CFU/mL in MHB II, 37 °C, 18 h, visual, triplicate; for MBFIC E. faecalis, CL: contact lenses (CL, Etafilcon A hydrogel) in 24-well plates; for MBFIC E. faecalis, PS: polystyrene plates (PS), 96-well
Protocol: (§2) To determine the inhibitory effect of antimicrobials on the formation of biofilm on hydrophobic surfaces, the bacterial suspensions of strains (initial inoculum of ca. 5 × 10^8 CFU/mL in MHB II medium supplemented with antimicrobials) were cultured on 96-well PS at 37 °C for 18 h under aerobic conditions. After incubation, the suspensions were aspirated, and the wells were rinsed three times with sterile phosphate buffer PBS (AppliChem, Darmstadt, Germany) in order to remove the planktonic cells. Resazurin (final concentration per sample = 0.005%) was applied as a cell viability reagent for reading the results. In contact with the living cells, the dye is metabolized by bacterial dehydrogenases, resulting in a reduction of blue resazurin to pink resorufin. All assays were performed in triplicate and included the growth controls (positive controls: bacterial suspensions without antimicrobials) and the sterility controls (negative controls: a sterile MBH medium). After 1h of incubation, a visual evaluation of results was made. […] In a preliminary study, it was established that the application of lipopeptides at a concentration found active from visual evaluation caused the reduction of bacterial metabolism to approximately 10% (or less) of the positive control once the results were evaluated with a spectrophotometer. After 1 h of incubation with the dye, absorbance was measured at 570 and 600 nm using a microplate reader (Thermo Fisher Scientific, Waltham, MA, USA). The metabolic activity of bacteria in the samples was measured according to the formula presented in the previous paper.
(§3) The MBFIC assay with CL was applied in order to access the influence of lipopeptides on the biofilm formation on hydrogel surfaces. The entire sterile CL (1-Day Acuvue Moist, containing Etafilcon A., purchased from Johnson & Johnson (Vision Care, Jacksonsville, FL, USA), were placed in 24-well PS (Orange Scientific, Braine-l’ Alleud, Belgium) and the MBFICs were determined according to the above protocol.

[8] = system: Escherichia coli ATCC 25922; test: as above; type: cell-based; details: ca. 5 × 10^8 CFU/mL in MHB II, 37 °C, 18 h, visual, triplicate; for MBFIC E. coli, CL: contact lenses (CL, Etafilcon A hydrogel) in 24-well plates; for MBFIC E. coli, PS: polystyrene plates (PS), 96-well
Protocol: as §2, §3

[9] = system: Proteus mirabilis PCM 543; test: as above; type: cell-based; details: ca. 5 × 10^8 CFU/mL in MHB II, 37 °C, 18 h, visual, triplicate; for MBFIC P. mirabilis, CL: contact lenses (CL, Etafilcon A hydrogel) in 24-well plates; for MBFIC P. mirabilis, PS: polystyrene plates (PS), 96-well
Protocol: as §2, §3

[10] = system: Pseudomonas aeruginosa ATCC 9027; test: as above; type: cell-based; details: ca. 5 × 10^8 CFU/mL in MHB II, 37 °C, 18 h, visual, triplicate; for MBFIC P. aeruginosa, CL: contact lenses (CL, Etafilcon A hydrogel) in 24-well plates; for MBFIC P. aeruginosa, PS: polystyrene plates (PS), 96-well
Protocol: as §2, §3

[11] = system: Staphylococcus aureus ATCC 25923; test: as above; type: cell-based; details: for MBFIC S. aureus, CL: contact lenses (CL, Etafilcon A hydrogel) in 24-well plates; for MBFIC S. aureus, CL / MBFIC S. aureus, PS: ca. 5 × 10^8 CFU/mL in MHB II, 37 °C, 18 h, resazurin, visual, triplicate; for MBFIC S. aureus, PS: polystyrene plates (PS), 96-well
Protocol: as §2, §3

[12] = system: Staphylococcus epidermidis ATCC 14990; test: as above; type: cell-based; details: for MBFIC S. epidermidis, CL: contact lenses (CL, Etafilcon A hydrogel) in 24-well plates; for MBFIC S. epidermidis, CL / MBFIC S. epidermidis, PS: ca. 5 × 10^8 CFU/mL in MHB II, 37 °C, 18 h, resazurin, visual, triplicate; for MBFIC S. epidermidis, PS: polystyrene plates (PS), 96-well
Protocol: as §2, §3

[13] = system: Proteus mirabilis PCM 543; type: cell-based; details: PCM 543, 18 h
Protocol: as §1

Compound | % ACN at which the peptide was eluted [1] [%] | tR' (adjusted retention time) [1] [min] | MIC E. faecalis [2] [µg/mL] | MIC E. coli [3] [µg/mL] | MIC P. aeruginosa [4] [µg/mL] | MIC S. aureus [5] [µg/mL] | MIC S. epidermidis [6] [µg/mL] | MIC P. mirabilis [13] [µg/mL] | MBFIC E. faecalis, CL [7] | MBFIC E. faecalis, PS [7] | MBFIC E. coli, CL [8] | MBFIC E. coli, PS [8] | MBFIC P. mirabilis, CL [9] | MBFIC P. mirabilis, PS [9] | MBFIC P. aeruginosa, CL [10] | MBFIC P. aeruginosa, PS [10] | MBFIC S. aureus, CL [11] | MBFIC S. aureus, PS [11] | MBFIC S. epidermidis, CL [12] | MBFIC S. epidermidis, PS [12] | further results
CCCCCCCCCCCC(=O)N[C@@H](CCCCN)C(=O)N[C@@H](CCCCN)C(=O)N[C@@H](CSSC[C@H](NC(=O)[C@H](CCCCN)NC(=O)[C@H](CCCCN)NC(=O)CCCCCCCCCCC)C(N)=O)C(N)=O [Lipopeptide 1, C12-KKC-NH2] (I: Lauroyl-Lys-Lys-Cys-NH2 / II: Lauroyl-Lys-Lys-Cys-NH2; disulfide I:3-II:3) | 38.6 | 3.10 | 4 (≈ 3.59 µM) | 16 (≈ 14.3 µM) | 32 (≈ 28.7 µM) | 8 (≈ 7.17 µM) | 2 (≈ 1.79 µM) |  | 64 µg/mL | 16 µg/mL | 128/128 μg/mL | 128/128 μg/mL | >512/>512 μg/mL | >512/>512 μg/mL | 128 µg/mL | 512 µg/mL | 32/32 μg/mL | 32/32 μg/mL | 16 µg/mL | 8 µg/mL | concentrations inhibiting formation of SE biofilm (MBFIC range) ([12]; range over PS and CL): 8 to 16 µg/mL
CCCCCCCCCCCCCC(=O)N[C@@H](CCCCN)C(=O)N[C@@H](CCCCN)C(=O)N[C@@H](CSSC[C@H](NC(=O)[C@H](CCCCN)NC(=O)[C@H](CCCCN)NC(=O)CCCCCCCCCCCCC)C(N)=O)C(N)=O [Lipopeptide 3, C14-KKC-NH2] (I: Myristoyl-Lys-Lys-Cys-NH2 / II: Myristoyl-Lys-Lys-Cys-NH2; disulfide I:3-II:3) | 43.3 | 3.88 | 16 (≈ 13.7 µM) | 64 (≈ 54.6 µM) | 128 (≈ 109 µM) | 32 (≈ 27.3 µM) | 4 (≈ 3.41 µM) | 512 (≈ 437 µM) | 64 µg/mL | 256 µg/mL | 64 µg/mL | 256 µg/mL | 512/512 μg/mL | 512/512 μg/mL | 512/512 μg/mL | 512/512 μg/mL | 32 µg/mL | 64 µg/mL | 32 µg/mL | 64 µg/mL | 
CCCCCCCCCCCCCC(=O)N[C@@H](CCCCN)C(=O)N[C@@H](CCCNC(=N)N)C(N)=O [Lipopeptide 4, C14-KR-NH2] (Myristoyl-Lys-Arg-NH2) | 39.7 | 3.29 | 32 (≈ 62.5 µM) | 32 (≈ 62.5 µM) | 128 (≈ 250 µM) | 32 (≈ 62.5 µM) | 4 (≈ 7.82 µM) | 512 (≈ 1000 µM) | 64 µg/mL | 128 µg/mL | 128/128 μg/mL | 128/128 μg/mL | 512/>512 μg/mL | 512/>512 μg/mL | 128 µg/mL | 256 µg/mL | 2 µg/mL | 16 µg/mL | 32/32 μg/mL | 32/32 μg/mL | concentrations inhibiting formation of SA biofilm (MBFIC range) ([11]; range over PS and CL): 2 to 16 µg/mL

Now from value to compound, other results behind:

% ACN at which the peptide was eluted [1] [%] | tR' (adjusted retention time) [1] [min] | MIC E. faecalis [2] [µg/mL] | MIC E. coli [3] [µg/mL] | MIC P. aeruginosa [4] [µg/mL] | MIC S. aureus [5] [µg/mL] | MIC S. epidermidis [6] [µg/mL] | MIC P. mirabilis [13] [µg/mL] | Compound | MBFIC E. faecalis, CL [7] | MBFIC E. faecalis, PS [7] | MBFIC E. coli, CL [8] | MBFIC E. coli, PS [8] | MBFIC P. mirabilis, CL [9] | MBFIC P. mirabilis, PS [9] | MBFIC P. aeruginosa, CL [10] | MBFIC P. aeruginosa, PS [10] | MBFIC S. aureus, CL [11] | MBFIC S. aureus, PS [11] | MBFIC S. epidermidis, CL [12] | MBFIC S. epidermidis, PS [12] | further results
43.7 | 3.95 | 32 (≈ 56.3 µM) | 16 (≈ 28.1 µM) | 256 (≈ 450 µM) | 64 (≈ 113 µM) | 32 (≈ 56.3 µM) | 512 (≈ 900 µM) | CCCCCCCCCCCCCCCC(=O)N[C@@H](CCCCN)C(=O)NCC(=O)N[C@@H](CCCCN)C(N)=O [Lipopeptide 5, C16-KGK-NH2] (Palmitoyl-Lys-Gly-Lys-NH2) | 64/64 μg/mL | 64/64 μg/mL | 128 µg/mL | 64 µg/mL | >512/512 μg/mL | >512/512 μg/mL | 256 µg/mL | 512 µg/mL | 32/32 μg/mL | 32/32 μg/mL | 64 µg/mL | 32 µg/mL | 
37.9 | 2.98 | 16 (≈ 25 µM) | 32 (≈ 50 µM) | 64 (≈ 100 µM) | 64 (≈ 100 µM) | 16 (≈ 25 µM) | 256 (≈ 400 µM) | CCCCCCCCCCCCCCCC(=O)N[C@@H](CCCCN)C(=O)N[C@@H](CCCCN)C(=O)N[C@@H](CCCCN)C(N)=O [Lipopeptide 7, C16-KKK-NH2] | 64/64 μg/mL | 64/64 μg/mL | 32 µg/mL | 64 µg/mL | 256 µg/mL | 512 µg/mL | 512/512 μg/mL | 512/512 μg/mL | 32/32 μg/mL | 32/32 μg/mL | 32 µg/mL | 8 µg/mL | 
